Test results from PMC4503722, “Novel Phenotypic Outcomes Identified for a Public Collection of Approved Drugs from a Publicly Accessible Panel of Assays” (PLoS ONE, 2015).
Read-outs that look alike come from different tables or passages of the source.

What was measured:
[1] = tested on: ECFC/ADSC co-culture cell nuclei number
RKO = assay: cells; format: cell-based
HT-29 = assay: cells; format: cell-based
HCT116 = assay: cells; format: cell-based
Colo320 = assay: cells; format: cell-based
[2] = tested on: HCT116 cells treated with a GSK3β inhibitor; assay: cells; format: cell-based
DLD-1 = assay: cells; format: cell-based
[3] = tested on: endothelial tube formation in co-cultures of ECFCs and ADSCs treated with VEGF; assay: cells; format: cell-based, human
SNU-C1 = assay: cells; format: cell-based
SW480 = assay: cells; format: cell-based
HeLa cells = assay: cells; format: cell-based
[4] = assay number 26, GSK3b inhibitor pretreated

CSc1ccc2c(c1)N(CCC1CCCCN1C)c1ccccc1S2 (stereo not shown) [NCGC00016059-13]
VEGF_ADSC\ECFC Angio Hoechst NucArea IC50/EC50 [1]: 9.242 µM
Basal_Viability ATP RKO IC50/EC50 (RKO; assay number 29, basal): 5.4868 µM
Basal_Viability ATP HT-29 IC50/EC50 (HT-29; assay number 28, basal): 5.8969 µM
Basal_Viability ATP HCT116 IC50/EC50 (HCT116; assay number 25, basal): > 20 µM
Basal_Viability ATP Colo 320 IC50/EC50 (Colo320; assay number 27, basal): 7.9244 µM
GSK3b inh pretreated_Viability ATP HCT116 IC50/EC50 [2, 4]: 8.1146 µM
Basal_Viability ATP DLD-1 IC50/EC50 (DLD-1; assay number 23, basal): > 20 µM
VEGF_ADSC\ECFC Angio CD31 TubeArea IC50/EC50 [3]: > 10 µM
Basal_Viability ATP SNU-C1 IC50/EC50 (SNU-C1; assay number 30, basal): 2.905 µM
Basal_Viability ATP SW480 IC50/EC50 (SW480; assay number 24, basal): 3.7076 µM

Cc1ccc2c(Br)cc(Br)c(O)c2n1 [NCGC00160566-02]
IC50 ([1]; read-out: VEGF_ADSC\ECFC Angio Hoechst NucArea summarized IC50): > 10 µM
IC50 (RKO; assay number 29, basal, read-out: Basal_Viability ATP RKO summarized IC50): 0.311 µM
IC50 (HT-29; assay number 28, basal, read-out: Basal_Viability ATP HT-29 summarized IC50): > 6.67 µM
IC50 (HCT116; assay number 25, basal, read-out: Basal_Viability ATP HCT116 summarized IC50): 1.16 µM
IC50 (Colo320; assay number 27, basal, read-out: Basal_Viability ATP Colo 320 summarized IC50): 0.001 µM
IC50 ([2]; assay number 26, GSK3b inhibitor pretreated, read-out: GSK3b inh pretreated_Viability ATP HCT116 summarized IC50): 1.03 µM
IC50 (DLD-1; assay number 23, basal, read-out: Basal_Viability ATP DLD-1 summarized IC50): 4.77 µM
IC50 ([3]; read-out: VEGF_ADSC\ECFC Angio CD31 TubeArea summarized IC50): > 10 µM
IC50 (SNU-C1; assay number 30, basal, read-out: Basal_Viability ATP SNU-C1 summarized IC50): 12.8 µM

O=C(NC1CCN(CCc2c[nH]c3ccccc23)CC1)c1ccccc1 [NCGC00165810-02]
VEGF_ADSC\ECFC Angio Hoechst NucArea IC50/EC50 [1]: > 10 µM
Basal_Viability ATP RKO IC50/EC50 (RKO; assay number 29, basal): > 20 µM
Basal_Viability ATP HT-29 IC50/EC50 (HT-29; assay number 28, basal): > 20 µM
Basal_Viability ATP Colo 320 IC50/EC50 (Colo320; assay number 27, basal): > 20 µM
GSK3b inh pretreated_Viability ATP HCT116 IC50/EC50 [2, 4]: > 20 µM
Basal_Viability ATP DLD-1 IC50/EC50 (DLD-1; assay number 23, basal): > 20 µM
VEGF_ADSC\ECFC Angio CD31 TubeArea IC50/EC50 [3]: > 10 µM
Basal_Viability ATP SNU-C1 IC50/EC50 (SNU-C1; assay number 30, basal): > 20 µM
Basal_Viability ATP SW480 IC50/EC50 (SW480; assay number 24, basal): > 20 µM

CCN1/C(=C/C=C/c2sc3ccccc3[n+]2CC)Sc2ccccc21.[I-] [NCGC00166288-02]
IC50/EC50, Basal_Viability ATP RKO (assay number 29) (RKO; basal): 0.00898 µM
IC50/EC50, Hela CellCycMod PI 2N (assay number 14) (HeLa cells; 2N): 8.506 µM
IC50/EC50, Hela CellCycMod PI 4N (assay number 16) (HeLa cells; 4N): > 10 µM
IC50/EC50, Hela CellCycMod PI Cell Number (assay number 18) (HeLa cells; Cell Number): 0.03604 µM
IC50/EC50, Hela CellCycMod PI MI (assay number 17) (HeLa cells; MI): 4.476 µM
IC50/EC50, Hela CellCycMod PI S Phase (assay number 15) (HeLa cells; S Phase): > 10 µM
IC50/EC50, Basal_Viability ATP HT-29 (assay number 28) (HT-29; basal): 0.00838 µM
IC50/EC50, Basal_Viability ATP HCT116 (assay number 25) (HCT116; basal): 0.00957 µM
IC50/EC50, Basal_Viability ATP Colo 320 (assay number 27) (Colo320; basal): 0.562 µM
IC50/EC50, GSK3b inh pretreated_Viability ATP HCT116 (assay number 26) ([2]; GSK3b inh pretreated): 0.00875 µM
IC50/EC50, Basal_Viability ATP DLD-1 (assay number 23) (DLD-1; basal): 0.0148 µM
IC50/EC50, Basal_Viability ATP SNU-C1 (assay number 30) (SNU-C1; basal): 0.01721 µM
IC50/EC50, Basal_Viability ATP SW480 (assay number 24) (SW480; basal): 0.172 µM

O=C(c1cc(O)c(O)c(O)c1)c1ccc(O)c(O)c1O [NCGC00249050-02]
Basal_Viability ATP RKO IC50/EC50 (RKO): 0.1924 µM
Hela CellCycMod PI 2N IC50/EC50 (HeLa cells): > 10 µM
Hela CellCycMod PI 4N IC50/EC50 (HeLa cells): > 10 µM
Hela CellCycMod PI Cell Number IC50/EC50 (HeLa cells): > 10 µM
Hela CellCycMod PI MI IC50/EC50 (HeLa cells): > 10 µM
Hela CellCycMod PI S Phase IC50/EC50 (HeLa cells): > 10 µM
Basal_Viability ATP HT-29 IC50/EC50 (HT-29): 9.4494 µM
Basal_Viability ATP HCT116 IC50/EC50 (HCT116): 16.3036 µM
Basal_Viability ATP Colo 320 IC50/EC50 (Colo320): 9.382 µM
GSK3b inh pretreated_Viability ATP HCT116 IC50/EC50 [2]: 0.06911 µM
Basal_Viability ATP DLD-1 IC50/EC50 (DLD-1): 11.8874 µM
Basal_Viability ATP SNU-C1 IC50/EC50 (SNU-C1): 12.767 µM
Basal_Viability ATP SW480 IC50/EC50 (SW480): 9.9516 µM

O=Cc1ccc(O)c(O)c1O [NCGC00262933-01]
IC50/EC50, Basal_Viability ATP RKO (assay number 29) (RKO): 6.232 µM
IC50/EC50, Hela CellCycMod PI 2N (assay number 14) (HeLa cells): > 10 µM
IC50/EC50, Hela CellCycMod PI 4N (assay number 16) (HeLa cells): > 10 µM
IC50/EC50, Hela CellCycMod PI Cell Number (assay number 18) (HeLa cells): > 10 µM
IC50/EC50, Hela CellCycMod PI MI (assay number 17) (HeLa cells): > 10 µM
IC50/EC50, Hela CellCycMod PI S Phase (assay number 15) (HeLa cells): > 10 µM
IC50/EC50, Basal_Viability ATP HT-29 (assay number 28) (HT-29): > 20 µM
IC50/EC50, Basal_Viability ATP HCT116 (assay number 25) (HCT116): > 20 µM
IC50/EC50, Basal_Viability ATP Colo 320 (assay number 27) (Colo320): 9.0837 µM
IC50/EC50, GSK3b inh pretreated_Viability ATP HCT116 (assay number 26) [2]: 0.1412 µM
IC50/EC50, Basal_Viability ATP DLD-1 (assay number 23) (DLD-1): > 20 µM
IC50/EC50, Basal_Viability ATP SNU-C1 (assay number 30) (SNU-C1): > 20 µM
IC50/EC50, Basal_Viability ATP SW480 (assay number 24) (SW480): 11.3319 µM
